Results: the supplement of paper PMC10307832

Experiments:
[1] = compound: O=c1ncccn1[C@@H]1O[C@H](CO)[C@@H](O)[C@H]1O [Zebularine] + Cc1nc(Nc2ncc(C(=O)Nc3c(C)cccc3Cl)s2)cc(N2CCN(CCO)CC2)n1 [Dasatinib] (partner 0.075 µM); experiment: relative viability (nuclei count vs DMSO), 5 days (fraction); higher = more cells survive
Method in brief: (§1)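 Relative viability is defined as nuclei in treated wells over nuclei in vehicle wells. Duplicate plates were run and medians reported. Lung cancer cell lines in 1536-well plates were dosed by pin tool one day after seeding, with one drug or with a fixed anchor-drug dose plus five library-drug doses (not always all listed) in √10 steps, and nuclei were counted after 5 days.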

[2] = compound: CC(C)CCN1c2nc(Nc3cc(F)c(O)c(F)c3)ncc2N(C)C(=O)C1C [BI-D1870] + CC(=O)Nc1cccc(-n2c(=O)n(C3CC3)c(=O)c3c(Nc4ccc(I)cc4F)n(C)c(=O)c(C)c32)c1 [Trametinib] (partner 0.02 µM); experiment: as above
Method in brief: as §1

## HOP-62
[1]; first compound 1 µM
  relative viability: 0.729
[1]; first compound 3.162 µM
  relative viability: 0.711
[1]; first compound 10 µM
  relative viability: 0.421
[1]; first compound 31.62 µM
  relative viability: 0.462
[1]; first compound 100 µM
  relative viability: 0.253
[2]; first compound 0.04 µM
  relative viability: 0.429
[2]; first compound 0.1265 µM
  relative viability: 0.332
[2]; first compound 0.4 µM
  relative viability: 0.331
[2]; first compound 1.265 µM
  relative viability: 0.367
[2]; first compound 4 µM
  relative viability: 0.299

## CAL-12T
[1]; first compound 1 µM
  relative viability: 0.462
[1]; first compound 3.162 µM
  relative viability: 0.623
[1]; first compound 10 µM
  relative viability: 0.238
[1]; first compound 31.62 µM
  relative viability: 0.451
[1]; first compound 100 µM
  relative viability: 0.414
[2]; first compound 0.04 µM
  relative viability: 0.353
[2]; first compound 0.1265 µM
  relative viability: 0.305
[2]; first compound 0.4 µM
  relative viability: 0.405
[2]; first compound 1.265 µM
  relative viability: 0.351
[2]; first compound 4 µM
  relative viability: 0.311

## NCI-H520
[1]; first compound 1 µM
  relative viability: 0.195
[1]; first compound 3.162 µM
  relative viability: 0.175
[1]; first compound 10 µM
  relative viability: 0.14
[1]; first compound 31.62 µM
  relative viability: 0.172
[1]; first compound 100 µM
  relative viability: 0.164
[2]; first compound 0.04 µM
  relative viability: 0.645
[2]; first compound 0.1265 µM
  relative viability: 0.627
[2]; first compound 0.4 µM
  relative viability: 0.683
[2]; first compound 1.265 µM
  relative viability: 0.612
[2]; first compound 4 µM
  relative viability: 0.302

## NCI-H1755
[1]; first compound 1 µM
  relative viability: 0.494
[1]; first compound 3.162 µM
  relative viability: 0.452
[1]; first compound 10 µM
  relative viability: 0.342
[1]; first compound 31.62 µM
  relative viability: 0.49
[1]; first compound 100 µM
  relative viability: 0.435
[2]; first compound 0.04 µM
  relative viability: 0.758
[2]; first compound 0.1265 µM
  relative viability: 0.774
[2]; first compound 0.4 µM
  relative viability: 0.74
[2]; first compound 1.265 µM
  relative viability: 0.831
[2]; first compound 4 µM
  relative viability: 0.739

## NCI-H2023
[1]; first compound 1 µM
  relative viability: 0.636
[1]; first compound 3.162 µM
  relative viability: 0.572
[1]; first compound 10 µM
  relative viability: 0.423
[1]; first compound 31.62 µM
  relative viability: 0.392
[1]; first compound 100 µM
  relative viability: 0.213
[2]; first compound 0.04 µM
  relative viability: 0.537
[2]; first compound 0.1265 µM
  relative viability: 0.389
[2]; first compound 0.4 µM
  relative viability: 0.578
[2]; first compound 1.265 µM
  relative viability: 0.516
[2]; first compound 4 µM
  relative viability: 0.349

## NCI-H2009
[1]; first compound 1 µM
  relative viability: 0.371
[1]; first compound 3.162 µM
  relative viability: 0.316
[1]; first compound 10 µM
  relative viability: 0.263
[1]; first compound 31.62 µM
  relative viability: 0.309
[1]; first compound 100 µM
  relative viability: 0.231
[2]; first compound 0.04 µM
  relative viability: 0.299
[2]; first compound 0.1265 µM
  relative viability: 0.221
[2]; first compound 0.4 µM
  relative viability: 0.248
[2]; first compound 1.265 µM
  relative viability: 0.289
[2]; first compound 4 µM
  relative viability: 0.198
